Laboratory results published in article PMC7350407, “Kinetic Modifications of C4 PEPC Are Qualitatively Convergent, but Larger in Panicum Than in Flaveria” (Frontiers in Plant Science, 2020).
Like-named read-outs stand apart in the source and are kept apart here.

Assays:
[1] = target: T1, Panicum pygmaeum (C3) PEPC; assay: malate dehydrogenase-coupled NADH assay, secondary plot of kcat/Km(HCO3-) against PEP; type: biochemical; details: substrate constant at limiting bicarbonate, not inhibition; pH 8.0, 25 °C, 10 mM MgCl2
T1 construct: gene ppc-1P3; full-length, 969 codons, codon-optimised synthetic gene, N-terminal His6 tag kept, E. coli BL21(DE3)
Description: malate dehydrogenase-coupled NADH assay, secondary plot of kcat/Km(HCO3-) against PEP on Panicum pygmaeum (C3) PEPC

[2] = target: T2, Panicum queenslandicum (C4) PEPC; assay: as above; type: biochemical; details: substrate constant at limiting bicarbonate, not inhibition; pH 8.0, 25 °C, 10 mM MgCl2
T2 construct: gene ppc-1P3; full-length, 962 codons, N-terminal His6 tag kept, E. coli BL21(DE3), cloned from leaf cDNA
Description: malate dehydrogenase-coupled NADH assay, secondary plot of kcat/Km(HCO3-) against PEP on Panicum queenslandicum (C4) PEPC

[3] = target: T3, Flaveria pringlei (C3) PEPC (Flaveria pringlei, UniProt Q01647); assay: as above; type: biochemical; details: substrate constant at limiting bicarbonate, not inhibition; pH 8.0, 25 °C, 10 mM MgCl2
T3 construct: gene PPCA1; full-length, 967 codons, N-terminal His6 tag kept (pET-1B His6 TEV LIC), E. coli BL21(DE3)
Description: malate dehydrogenase-coupled NADH assay, secondary plot of kcat/Km(HCO3-) against PEP on Flaveria pringlei (C3) PEPC

[4] = test system: T2, Panicum queenslandicum (C4) PEPC; assay: malate dehydrogenase-coupled NADH assay, […] nm, secondary plot; type: biochemical; details: co-substrate bicarbonate; pH 8.0, 25 °C, 10 mM MgCl2; read-out: KmPEP
[5] = target: T4, Flaveria trinervia (C4) PEPC (Flaveria trinervia, UniProt P30694); assay: malate dehydrogenase-coupled NADH assay, secondary plot of kcat/Km(HCO3-) against PEP; type: biochemical; details: substrate constant at limiting bicarbonate, not inhibition; pH 8.0, 25 °C, 10 mM MgCl2
T4 construct: gene PPCA; full-length, 967 codons, N-terminal His6 tag kept (pET-1B His6 TEV LIC), E. coli BL21(DE3)
Description: malate dehydrogenase-coupled NADH assay, secondary plot of kcat/Km(HCO3-) against PEP on Flaveria trinervia (C4) PEPC

[6] = test system: T1, Panicum pygmaeum (C3) PEPC; assay: malate dehydrogenase-coupled NADH assay, […] nm, secondary plot; type: biochemical; details: co-substrate bicarbonate; pH 8.0, 25 °C, 10 mM MgCl2; read-out: KmPEP
[7] = target: T1, Panicum pygmaeum (C3) PEPC; assay: malate dehydrogenase-coupled NADH assay, […] nm; type: biochemical; details: pH 8.0, 25 °C, 10 mM MgCl2, 5 mM KHCO3, PEP varied
[8] = target: T2, Panicum queenslandicum (C4) PEPC; assay: malate dehydrogenase-coupled NADH assay, […] nm; type: biochemical; details: pH 8.0, 25 °C, 10 mM MgCl2, 5 mM KHCO3, PEP varied
[9] = target: T3, Flaveria pringlei (C3) PEPC; assay: malate dehydrogenase-coupled NADH assay, […] nm; type: biochemical
[10] = target: T4, Flaveria trinervia (C4) PEPC; assay: malate dehydrogenase-coupled NADH assay, […] nm; type: biochemical
[11] = test system: T5, Panicum pygmaeum (C3) PEPC; details: read-out: KmHCO3-; co-substrate PEP; pH 8.0, 25 °C, 10 mM MgCl2
T5 construct: gene ppc-1P3

[12] = test system: T6, Panicum queenslandicum (C4) PEPC; details: read-out: KmHCO3-; co-substrate PEP; pH 8.0, 25 °C, 10 mM MgCl2
T6 construct: gene ppc-1P3

purified protein [13] = substrate: O=C(O)O; assay: purified protein; details: co-substrate PEP, pH 8.0, 25 °C, 10 mM MgCl2
purified protein [14] = substrate: C=C(OP(=O)(O)O)C(=O)O; assay: purified protein; type: biochemical, Flaveria pringlei; details: co-substrate bicarbonate, pH 8.0, 25 °C, 10 mM MgCl2
purified protein [15] = substrate: C=C(OP(=O)(O)O)C(=O)O; assay: purified protein; type: biochemical, Flaveria trinervia; details: co-substrate bicarbonate, pH 8.0, 25 °C, 10 mM MgCl2
[16] = mixed inhibitor, competitive constant (limiting PEP), read-out: KicMalate
[17] = competitive, read-out: KicAspartate

Molecule: C=C(OP(=O)(O)O)C(=O)O [PEP]
- KiPEP [1]: 0.05 ± 0.01 mM
- KiPEP [2]: 4.39 ± 1.10 mM
- KiPEP [3]: 0.02 ± 0.01 mM
- Km [4]: 4170 ± 300 µM
- KiPEP [5]: 0.40 ± 0.13 mM
- Km [6]: 170 ± 50 µM

Molecule: O=C(O)C[C@H](O)C(=O)O [malate]
- Ki [7, 16]: 0.52 ± 0.22 mM
- Ki [8, 16]: 7.51 ± 1.17 mM
- Ki ([9]; read-out: KicMalate): 2.14 ± 0.62 mM
- Ki ([10]; read-out: KicMalate): 11 ± 1.55 mM

Molecule: N[C@@H](CC(=O)O)C(=O)O [aspartate]
- Ki [7, 17]: 2.27 ± 0.02 mM
- Ki [8, 17]: 49.4 ± 7.86 mM
- Ki ([9]; read-out: KicAspartate): 4.13 ± 0.6 mM
- Ki ([10]; read-out: KicAspartate): 40 ± 6.49 mM

Molecule: O=C(O)O [bicarbonate]
- Km [11]: 120 ± 20 µM
- Km [12]: 40 ± 20 µM

B1: Flaveria pringlei (C3) PEPC (Flaveria pringlei) (protein)
chain: MANRNLEKLASIDAQLRLLVPGKVSEDDKLIEYDALLLDKFLDILQDLHGEDLKEAVQECYELSAEYEGKHDPKKLEELGSVLTSLDPGDSIVIAKAFSHMLNLANLAEEVQIAYRRRIKLKRGDFADEANATTESDIEETFKKLVLKLNKSPEEVFDALKNQTVDLVLTAHPTQSVRRSLLQKHGRIRNCLAQLYAKDITPDDKQELDEALHREIQAAFRTDEIRRTPPTPQDEMRAGMSYFHETIWKGVPKFLRRVDTALKNIGINERVPYNAPLIQFSSWMGGDRDGKHPRVTPEVTRDVCLLARMMASNMYFSQIEDLMFEMSMWRCNSELRVRAEELYRTARRDVKHYIEFWKQVPPTEPYRVILGDVRDKLYNTRERSRHLLAHGISDIPEEAVYTNVEQFLEPLELCYRSLCDCGDRVIADGSLLDFLRQVSTFGLSLVKLDIRQESDRHTDVLDAITQHLEIGSYREWSEEKRQEWLLAELSGKRPLFGSDLPKTEEVKDVLDTFNVLAELPSDCFGAYIISMATSPSDVLAVELLQRECHVKHPLRVVPLFEKLADLEAAPAAMARLFSIDWYRNRIDGKQEVMIGYSDSGKDAGRFSAAWQLYKAQEEIIKVAKEFGVKLVIFHGRGGTVGRGGGPTHLAILSQPPDTIHGSLRVTVQGEVIEQSFGEEHLCFRTLQRFCAATLEHGMNPPISPRPEWRELMDQMAVVATEEYRSIVFKEPRFVEYFRLATPELEYGRMNIGSRPSKRKPSGGIESLRAIPWIFAWTQTRFHLPVWLGFGAAFKHAIKKDSKNLQMLQEMYKTWPFFRVTIDLVEMVFAKGDPGIAALNDKLLVSEDLWPFGESLRANYEETKDYLLKIAGHRDLLEGDPYLKQRIRLRDSYITTLNVCQAYTLKRIRDPNYHVTLRPHISKEYAAEPSKPADELIHLNPTSEYAPGLEDTLILTMKGIAAGMQNTG
notes: full-length, 967 codons, N-terminal His6 tag kept (pET-1B His6 TEV LIC), E. coli BL21(DE3)
- Km (purified protein [13]): 100 ± 10 µM
- kcat (purified protein [13]): 52.65 ± 1.37 s⁻¹
- kcat/Km (purified protein [13]): 440000 M⁻¹ s⁻¹
- Km (purified protein [14]): 60 ± 10 µM
- kcat (purified protein [14]): 52.65 ± 1.37 s⁻¹
- kcat/Km (purified protein [14]): 940000 ± 84900 M⁻¹ s⁻¹

B2: Flaveria trinervia (C4) PEPC (Flaveria trinervia) (protein)
chain: MANRNVEKLASIDAQLRLLVPGKVSEDDKLVEYDALLLDKFLDILQDLHGEDLKEAVQQCYELSAEYEGKHDPKKLEELGSLLTSLDTGDSIVIAKAFSHMLNLANLAEELQIAYRRRIKLKSGDFADEANATTESDIEETFKRLVHKLNKSPEEVFDALKNQTVELVLTAHPTQSVRRSLLQKHGRIRNCLAQLYAKDITPDDKQELDEALHREIQAAFRTDEIRRTPPTPQDEMRAGMSYFHETIWKGVPKFLRRVDTALKNIGINERFPYNAPLIQFSSWMGGDRDGNPRVTPEVTRDVCLLARMMTSNMYFSQIEDLMIEMSMWRCNSELRVRAEELYRTARKDVKHYIEFWKRIPPNQPYRVILGDVRDKLYNTRERSRHLLVDGKSDIPDEAVYTNVEQLLEPLELCYRSLCDCGDHVIADGSLLDFLRQVSTFGLSLVKLDIRQESDRHTEVLDAITQHLGIGSYREWSEEKRQEWLLAELSGKRPLIGPDLPKTEEVKDCLDTFKVLAELPSDCFGAYIISMATSTSDVLAVELLQREYHIKHPLRVVPLFEKLADLEAAPAAMTRLFSMDWYRNRIDGKQEVMIGYSDSGKDAGRFSAAWQLYKTQEQIVKIAKEFGVKLVIFHGRGGTVGRGGGPTHLALLSQPPDTINGSLRVTVQGEVIEQSFGEEHLCFRTLQRFCAATLEHGMNPPISPRPEWRELMDQMAVVATEEYRSVVFKEPRFVEYFRLATPELEFGRMNIGSRPSKRKPSGGIESLRAIPWIFSWTQTRFHLPVWLGFGAAFKHAIQKDSKNLQMLQEMYKTWPFFRVTIDLVEMVFAKGNPGIAALNDKLLVSEDLRPFGESLRANYEETKNYLLKIAGHKDLLEGDPYLKQGIRLRDPYITTLNVCQAYTLKRIRDPNYHVTLRPHISKEYAAEPSKPADELIHLNPTSEYAPGLEDTLILTMKGIAAGMQNTG
notes: as for B1
- Km (purified protein [13]): 70 ± 10 µM
- kcat (purified protein [13]): 47.99 ± 1.21 s⁻¹
- kcat/Km (purified protein [13]): 690000 M⁻¹ s⁻¹
- Km (purified protein [15]): 600 ± 50 µM
- kcat (purified protein [15]): 47.99 ± 1.21 s⁻¹
- kcat/Km (purified protein [15]): 80000 ± 5400 M⁻¹ s⁻¹
